The target in assay [1] is T1, Furin (108-574-Tev-Flag-His) enzyme (Homo sapiens, UniProt P09958).
T1 construct: Furin (108-574-Tev-Flag-His) enzyme was expressed and purified from CHO cells; TEV cleavage site (C); FLAG (C); His (C); made in house; host or cells: CHO cells
As to the kind of experiment: Furin enzyme assay. Type of assay: biochemical. The procedure:
Reactions were performed in black 384-well polystyrene low volume plates (Greiner). Furin (108-574-Tev-Flag-His) enzyme was expressed and purified from CHO cells. Compounds of the invention were dissolved in DMSO (1.0 mM) and serially diluted 1 to 3 with DMSO through eleven dilutions to provide a final compound concentration range from 0.00017 to 10 μM. 0.05 μL of each concentration was transferred to the corresponding well of an assay plate, and then 5 μL of 40 pM furin enzyme in assay buffer (100 mM HEPES pH7.5, 1 mM CaCl2 and 0.005% Triton X-100) was added using a Multidrop Combi (Thermo) to the compound plates, and mixed by inversion. […] The plates were centrifuged at 500×g for 1 minute and incubated at room temperature for two hours. Enzyme inhibition is then quantified using an Envision instrument (PerkinElmer).
Data were analyzed using AbaseXE 7.3, utilizing a four-parameter curve fit equation. The following values were used to define limits and/or constraints for each of the four parameters: • Minimum—limit −10 to 10 • Maximum—90 to 110 • Slope—limit 0.5 to 2.0 • pXC50 confidence interval—10
Raw counts obtained from the respective plate reader (Perkin Elmer) were captured for data analysis. Curves were generated using the equation: Y=A+[(B−A)/(1+(10^C/x)^D)] • where: A=minimum response • B=maximum response • C=log 10*XC50 • D=slope factor • x=log 10 compound concentration [M]
The results were recorded as pXC50 values (−C in the above equation)

Assay [2] addresses T2, furin (endogenous protease) in U20S cells (Homo sapiens, UniProt P09958).
T2 construct: the endogenous protease cleaves GFP; endogenous in cells; host or cells: U2OS cells transduced with a BacMam reporter
As to the kind of experiment: Furin cell-based assay (image-based, Golgi-targeted GFP with BMP10 furin/PCSK cleavage site).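 Further: Read-out is mean GFP fluorescence of Golgi puncta per cell by high-content imaging, retained when furin inhibited, over an eleven-point 0.00017–10 µM series, four-parameter fit.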 As to conditions: 24-hour incubation, read-out: furin golgi cell pXC50 (converted).

Molecules are shown by their SMILES. Counter-ions that a name gives are not always drawn.

T2 sequence (P09958 108-794): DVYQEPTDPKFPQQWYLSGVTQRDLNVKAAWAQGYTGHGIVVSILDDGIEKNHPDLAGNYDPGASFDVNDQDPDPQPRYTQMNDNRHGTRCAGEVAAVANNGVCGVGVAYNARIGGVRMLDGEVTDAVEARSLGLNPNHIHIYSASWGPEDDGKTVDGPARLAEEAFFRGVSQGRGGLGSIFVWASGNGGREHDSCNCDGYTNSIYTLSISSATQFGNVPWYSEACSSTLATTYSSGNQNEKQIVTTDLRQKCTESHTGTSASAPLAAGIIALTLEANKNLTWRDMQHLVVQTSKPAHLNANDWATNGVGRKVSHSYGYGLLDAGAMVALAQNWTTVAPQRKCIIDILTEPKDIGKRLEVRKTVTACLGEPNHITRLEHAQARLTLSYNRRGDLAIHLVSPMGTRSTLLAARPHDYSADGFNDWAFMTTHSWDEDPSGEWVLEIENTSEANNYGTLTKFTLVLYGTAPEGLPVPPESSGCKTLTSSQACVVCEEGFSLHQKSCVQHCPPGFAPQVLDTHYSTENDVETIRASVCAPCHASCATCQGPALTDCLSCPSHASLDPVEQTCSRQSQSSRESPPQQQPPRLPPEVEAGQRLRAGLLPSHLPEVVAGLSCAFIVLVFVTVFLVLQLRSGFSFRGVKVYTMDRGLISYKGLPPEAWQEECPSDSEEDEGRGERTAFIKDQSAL
T1 sequence (P09958 108-574): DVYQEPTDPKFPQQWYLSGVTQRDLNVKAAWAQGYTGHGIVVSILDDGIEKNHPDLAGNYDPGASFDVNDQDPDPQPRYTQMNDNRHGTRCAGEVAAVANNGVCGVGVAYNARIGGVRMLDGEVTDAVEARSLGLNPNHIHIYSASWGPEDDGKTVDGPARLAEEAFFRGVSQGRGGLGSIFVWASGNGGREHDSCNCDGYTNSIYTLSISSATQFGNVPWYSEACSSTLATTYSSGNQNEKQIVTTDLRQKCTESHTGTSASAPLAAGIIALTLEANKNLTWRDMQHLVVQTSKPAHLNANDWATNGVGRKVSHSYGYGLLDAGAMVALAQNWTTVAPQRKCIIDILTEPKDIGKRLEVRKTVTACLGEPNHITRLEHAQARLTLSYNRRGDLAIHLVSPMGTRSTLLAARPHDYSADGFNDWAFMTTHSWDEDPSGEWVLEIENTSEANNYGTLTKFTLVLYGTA

For `CN1C[C@@H]2C[C@H]1CN2c1cnc(Oc2cc(CN3CCC(CC(=O)O)CC3)cc(-c3cc(Cl)cc(Cl)c3)n2)cn1` [Example 346, 2-(1-((2-(3,5-dichlorophenyl)-6-((5-((1S,4S)-5-methyl-2,5-diazabicyclo+2.2.1+heptan-2-yl)pyrazin-2-yl)oxy)pyridin-4-yl)methyl)piperidin-4-yl)acetic acid], the “furin enzyme pIC50” value in assay [1] came to 8.5. In assay [2], the EC50 is 12.6 nM.
Taken in the same sequence, the figures for `CN1CCN(c2ncc(Oc3cc(CN4CCC(CC(=O)O)CC4)cc(-c4cc(Cl)cc(Cl)c4)c3)cn2)CC1` [Example 117, 2-(1-((3′,5′-Dichloro-5-((2-(4-methylpiperazin-1-yl)pyrimidin-5-yl)oxy)-[1,1′-biphenyl]-3-yl)methyl)piperidin-4-yl)acetic acid] were 9.2 and 31.6 nM.
As to `CS(=O)(=O)NCC1CCN(Cc2cc(Oc3ccc(N4CCN(CCC(=O)O)CC4)nc3)nc(-c3cc(Cl)cc(Cl)c3)c2)CC1` [Example 44], the “furin enzyme pIC50” value in assay [1] turned out to be 9.5. Besides, in assay [2], the EC50 was 25.1 nM.
Take `CN1CCN(c2ncc(Oc3cc(-c4cc(Cl)cc(Cl)c4)cc(CN4CCC(CC(=O)O)CC4)c3F)cn2)CC1` [Example 376, 2-(1-((3′,5′-dichloro-4-fluoro-5-((2-(4-methylpiperazin-1-yl)pyrimidin-5-yl)oxy)-[1,1′-biphenyl]-3-yl)methyl)piperidin-4-yl)acetic acid]: in assay [1], the “furin enzyme pIC50” value worked out at 8.7. Moreover, the EC50 in assay [2] is 25.1 nM.
On to `Cc1c(CN2CCC(CC(=O)O)CC2)cc(-c2cc(Cl)cc(Cl)c2)nc1Oc1ccc(N2CCN(C)CC2)nn1` [Example 371, 2-(1-((6-(3,5-Dichlorophenyl)-3-methyl-2-((6-(4-methylpiperazin-1-yl)pyridazin-3-yl)oxy)pyridin-4-yl)methyl)piperidin-4-yl)acetic acid], for which the “furin enzyme pIC50” value in assay [1] is recorded as 8.9. The EC50 in assay [2] is 31.6 nM.
Taken in the same sequence, the figures for `CC(=O)NCC1(O)CCN(Cc2cc(Oc3ccc(N4CCNCC4)nc3)nc(-c3cc(Cl)cc(Cl)c3)c2)CC1` [Example 2, N-((1-((2-(3,5-Dichlorophenyl)-6-((6-(piperazin-1-yl)pyridine-3-yl)oxy)pyridin-4-yl)methyl)-4-hydroxypiperidin-4-yl)methyl)acetamide] were 8.8 and 39.8 nM.
The like results for `CNC(=O)NCC1CCN(Cc2cc(Oc3cnc(N4CCNCC4)nc3)nc(-c3cc(Cl)cc(Cl)c3)c2)CC1` [Example 75, 1-((1-((2-(3,5-Dichlorophenyl)-6-((2-(piperazin-1-yl)pyrimidin-5-yl)oxy)pyridin-4-yl)methyl)piperidin-4-yl)methyl)-3-methylurea, 4 hydrochloride] were, in that order, 9.1 and 3.16 nM.
Taken in the same sequence, the figures for `CC(=O)NCC1CCN(Cc2cc(Oc3ccc(N4CCN(CC(C)C(=O)O)CC4)nn3)nc(-c3cc(Cl)cc(Cl)c3)c2)CC1` (stereo not shown) [Example 363, 3-(4-(6-((4-((4-(acetamidomethyl)piperidin-1-yl)methyl)-6-(3,5-dichlorophenyl)pyridin-2-yl)oxy)pyridazin-3-yl)piperazin-1-yl)-2-methylpropanoic acid] were 9.7 and 631 nM.
With `CNC(=O)OCC1CCN(Cc2cc(Oc3cnc(N4CCN(CCCS(C)(=O)=O)CC4)nc3)nc(-c3cc(Cl)cc(Cl)c3)c2)CC1` [Example 210, (1-((2-(3,5-dichlorophenyl)-6-((2-(4-(3-(methylsulfonyl)propyl)piperazin-1-yl)pyrimidin-5-yl)oxy)pyridin-4-yl)methyl)piperidin-4-yl)methyl methylcarbamate], in assay [1], the “furin enzyme pIC50” value is reported as 8.7. The EC50 in assay [2] was 3.98 nM.
The like results for `CN1CCN(c2ncc(Oc3cc(CN4CCC(OCC(=O)O)CC4)cc(-c4cc(Cl)cc(Cl)c4)n3)cn2)CC1` [Example 53, 2-((1-((2-(3,5-Dichlorophenyl)-6-((2-(4-methylpiperazin-1-yl)pyrimidin-5-yl)oxy)pyridin-4-yl)methyl)piperidin-4-yl)oxy)acetic acid, 4 hydrochloride] were, in that order, 8.7 and 15.8 nM.
Consider `NS(=O)(=O)CCCN1CCN(c2ncc(Oc3cc(CN4CCC(CC(=O)O)CC4)cc(-c4cc(Cl)cc(Cl)c4)n3)cn2)CC1` [Example 246, 2-(1-((2-(3,5-dichlorophenyl)-6-((2-(4-(3-sulfamoylpropyl)piperazin-1-yl)pyrimidin-5-yl)oxy)pyridin-4-yl)methyl)piperidin-4-yl)acetic acid], for which the “furin enzyme pIC50” value in assay [1] was found to be 8.9. In assay [2], the EC50 is 15.8 nM.
Taken in the same sequence, the figures for `CCNC(=O)CC1CCN(Cc2cc(Oc3ccc(N4CCN(CCCS(C)(=O)=O)CC4)nc3)nc(-c3cc(Cl)cc(Cl)c3)c2)CC1` [Example 36, 2-(1-((2-(3,5-Dichlorophenyl)-6-((6-(4-(3-(methylsulfonyl)propyl)piperazin-1-yl)pyridin-3-yl)oxy)pyridin-4-yl)methyl)piperidin-4-yl)-N-ethylacetamide] were 9 and 5.01 nM.
For the molecule `COCCN1CCN(c2ncc(Oc3cc(CN4CCC(CC(=O)O)CC4)cc(-c4cc(Cl)cc(Cl)c4)n3)cn2)CC1` [Example 247, 2-(1-((2-(3,5-dichlorophenyl)-6-((2-(4-(2-methoxyethyl)piperazin-1-yl)pyrimidin-5-yl)oxy)pyridin-4-yl)methyl)piperidin-4-yl)acetic acid], the “furin enzyme pIC50” value in assay [1] amounted to 8.5. For the same molecule, the EC50 in assay [2] was 31.6 nM.
For the molecule `CC(=O)NCC1CCN(Cc2cc(Oc3ccc(N4C[C@@H]5C[C@H]4CN5CCS(C)(=O)=O)nc3)nc(-c3cc(Cl)cc(Cl)c3)c2)CC1` [Example 183, N-((1-((2-(3,5-Dichlorophenyl)-6-((6-((1S,4S)-5-(2-(methylsulfonyl)ethyl)-2,5-diazabicyclo[2.2.1]heptan-2-yl)pyridin-3-yl)oxy)pyridin-4-yl)methyl)piperidin-4-yl)methyl)acetamide], the IC50 in assay [1] (read-out: furin enzyme pIC50 (converted)) is 0.0251 nM. Also, the EC50 in assay [2] was 12.6 nM.
In the case of `CNC(=O)NCC1CCN(Cc2cc(Oc3cnc(N4CCN(C(C)CCO)CC4)nc3)nc(-c3cc(Cl)cc(Cl)c3)c2)CC1` (stereo not shown) [Example 20, 1-((1-((2-(3,5-dichlorophenyl)-6-((2-(4-(4-hydroxybutan-2-yl)piperazin-1-yl)pyrimidin-5-yl)oxy)pyridin-4-yl)methyl)piperidin-4-yl)methyl)-3-methylurea], the “furin enzyme pIC50” value in assay [1] came to 9.6. Besides, the EC50 in assay [2] was 1 nM.
Taken in the same sequence, the figures for `CC(=O)NCC1CCN(Cc2cc(Oc3cnc(N4CCN(CCS(C)(=O)=O)CC4)nc3)cc(-c3cc(Cl)cc(Cl)c3)c2)CC1` [Example 167, N-((1-((3′,5′-Dichloro-5-((2-(4-(2-(methylsulfonyl)ethyl)piperazin-1-yl)pyrimidin-5-yl)oxy)-[1,1′-biphenyl]-3-yl)methyl)piperidin-4-yl)methyl)acetamide] were 8.3 and 50.1 nM.
The like results for `C[C@@H](CC1CCN(Cc2cc(Oc3ccc(N4CCN(C)CC4)nn3)nc(-c3cc(Cl)cc(Cl)c3)c2)CC1)C(=O)O` [Example 365, (S)-3-(1-((2-(3,5-dichlorophenyl)-6-((6-(4-methylpiperazin-1-yl)pyridazin-3-yl)oxy)pyridin-4-yl)methyl)piperidin-4-yl)-2-methylpropanoic acid] were, in that order, 9.9 and 126 nM.
The like results for `CS(=O)(=O)CCCN1CCN(c2ccc(Oc3cc(CN4CCC(CCC(=O)O)CC4)cc(-c4cc(Cl)cc(Cl)c4)n3)cn2)CC1` [Example 271, 3-(1-((2-(3,5-dichlorophenyl)-6-((6-(4-(3-(methylsulfonyl)propyl)piperazin-1-yl)pyridin-3-yl)oxy)pyridin-4-yl)methyl)piperidin-4-yl)propanoic acid] were, in that order, 8.9 and 25.1 nM.
For `CNC(=O)OCC1CCN(Cc2cc(Oc3cnc(N4CCN(C(C)CCO)CC4)nc3)nc(-c3cc(Cl)cc(Cl)c3)c2)CC1` (stereo not shown) [Example 209, (1-((2-(3,5-dichlorophenyl)-6-((2-(4-(4-hydroxybutan-2-yl)piperazin-1-yl)pyrimidin-5-yl)oxy)pyridin-4-yl)methyl)piperidin-4-yl)methyl methylcarbamate], in assay [1], the “furin enzyme pIC50” value stood at 9.6. In assay [2], the EC50 was 2.51 nM.
The like results for `CN1CCN(c2ncc(Oc3cc(CN4CCC5(CC4)CN(C(=O)CO)C5)cc(-c4cc(Cl)cc(Cl)c4)n3)cn2)CC1` [Example 135, 1-(7-((2-(3,5-dichlorophenyl)-6-((2-(4-methylpiperazin-1-yl)pyrimidin-5-yl)oxy)pyridin-4-yl)methyl)-2,7-diazaspiro[3.5]nonan-2-yl)-2-hydroxyethanone] were, in that order, 9.2 and 10 nM.
